In PMC6151650, “The Native Fruit Geoffroea decorticans from Arid Northern Chile: Phenolic Composition, Antioxidant Activities and In Vitro Inhibition of Pro-Inflammatory and Metabolic Syndrome-Associated Enzymes” (Molecules : A Journal of Synthetic Chemistry and Natural …, 2017):

Columns and labels:
[1] = molecular target: porcine pancreas lipase; parameters: method as in PMID 28454959; settings: commercial polyphenol standards; cited from earlier work
[2] = molecular target: T1, COX-1 (Ovis aries, UniProt P05979); test: Cyclooxygenase inhibition, commercial kit (COX-1); type: biochemical; settings: at 50 μg/mL
T1 construct: purchased Cayman Chemical 560131
T1 sequence (P05979 25-600): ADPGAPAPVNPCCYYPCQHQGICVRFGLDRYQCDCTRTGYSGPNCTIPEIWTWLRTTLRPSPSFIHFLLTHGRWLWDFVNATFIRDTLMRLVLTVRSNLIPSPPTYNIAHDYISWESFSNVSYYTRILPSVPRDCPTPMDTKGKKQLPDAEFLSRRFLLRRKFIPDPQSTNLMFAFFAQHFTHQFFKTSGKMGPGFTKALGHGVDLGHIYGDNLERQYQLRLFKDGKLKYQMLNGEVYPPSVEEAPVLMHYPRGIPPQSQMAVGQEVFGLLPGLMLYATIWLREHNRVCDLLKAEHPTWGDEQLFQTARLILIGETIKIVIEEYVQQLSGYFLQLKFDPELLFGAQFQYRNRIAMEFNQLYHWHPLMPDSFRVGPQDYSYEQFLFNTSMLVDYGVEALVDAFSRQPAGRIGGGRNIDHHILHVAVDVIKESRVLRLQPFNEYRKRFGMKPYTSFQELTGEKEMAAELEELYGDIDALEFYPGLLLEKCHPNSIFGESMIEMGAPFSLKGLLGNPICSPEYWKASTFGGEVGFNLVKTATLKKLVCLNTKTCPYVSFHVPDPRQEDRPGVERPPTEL
Procedure: COX inhibitory activity was determined using a commercial kit (560131, Cayman Chemical, Ann Arbor, MI, USA). Enzyme and samples (50 μg PEE/mL) were pre-incubated during 10 min and then arachidonic acid was added. The reaction was conducted for exactly 2 min at 37 °C and halted in boiling water for 5 min. […] Results were expressed as a percentage of inhibition of PGF2α production. The commercial anti-inflammatory compound nimesulide was included as the reference compound [4].

[3] = molecular target: T2, COX-2 (Homo sapiens, UniProt P35354); test: Cyclooxygenase inhibition, commercial kit (COX-2); type: biochemical; settings: read-out: COX-2% Inhibition
T2 construct: purchased Cayman Chemical 560131
T2 sequence (P35354 18-604): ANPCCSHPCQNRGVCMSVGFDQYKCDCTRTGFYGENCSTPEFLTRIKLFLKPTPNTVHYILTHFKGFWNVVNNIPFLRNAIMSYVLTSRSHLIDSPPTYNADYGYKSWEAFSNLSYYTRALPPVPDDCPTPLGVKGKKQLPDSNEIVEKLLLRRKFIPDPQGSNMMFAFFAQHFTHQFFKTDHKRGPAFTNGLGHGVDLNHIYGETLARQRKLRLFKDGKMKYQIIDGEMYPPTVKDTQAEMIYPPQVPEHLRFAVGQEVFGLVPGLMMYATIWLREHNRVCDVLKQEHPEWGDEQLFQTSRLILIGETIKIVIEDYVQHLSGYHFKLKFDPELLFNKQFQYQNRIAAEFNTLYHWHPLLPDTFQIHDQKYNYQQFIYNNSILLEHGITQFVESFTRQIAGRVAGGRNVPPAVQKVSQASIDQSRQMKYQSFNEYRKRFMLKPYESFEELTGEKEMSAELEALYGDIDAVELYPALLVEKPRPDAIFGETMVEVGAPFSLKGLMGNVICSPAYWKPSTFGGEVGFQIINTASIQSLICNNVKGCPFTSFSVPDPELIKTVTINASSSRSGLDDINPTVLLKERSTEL
Procedure: Enzyme and samples (50 μg PEE/mL) were pre-incubated during 10 min and then arachidonic acid was added. The reaction was conducted for exactly 2 min at 37 °C and halted in boiling water for 5 min. […] Results were expressed as a percentage of inhibition of PGF2α production.

[4] = molecular target: T3, sPLA2 (Homo sapiens, UniProt P39877); test: Secretory phospholipase A2 inhibition, colorimetric kit; type: biochemical; settings: read-out: sPLA2 % Inhibition
T3 construct: purchased Cayman Chemical 10004883
T3 sequence (P39877 21-138): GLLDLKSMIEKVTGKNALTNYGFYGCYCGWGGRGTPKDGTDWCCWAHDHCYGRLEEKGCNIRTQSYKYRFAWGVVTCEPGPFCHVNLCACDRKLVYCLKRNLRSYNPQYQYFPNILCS
Procedure: The sPLA2 inhibitory activity was determined using a colorimetric kit (10004883, Cayman Chemical). Enzyme and samples (200–100 μg PEE/mL) were mixed, and then the substrate (diheptanoyl Thio-PC) was added, and incubated during 15 min at 25 °C. Then, DTNB (Ellman’s reagent) was added and absorbance was read at 415 nm. Results are expressed as a percentage of inhibition or IC50 (μg PEE/mL). Ursolic acid was used as the reference compound [37].

[5] = Cupric-reducing antioxidant capacity (CUPRAC) assay; settings: Trolox equivalents
Procedure: (§1) The ferric-reducing antioxidant power (FRAP) assay was carried out according to a previously described method. The cupric-reducing antioxidant capacity (CUPRAC) assay was performed according to literature. Results are expressed as mmoles Trolox equivalents/kg PEE. Catechin was used as a positive control in both assays.

[6] = Scavenging of superoxide anion generated by xanthine oxidase; type: biochemical
Procedure: The superoxide anion generated by xanthine oxidase can be scavenged by polyphenols. In this assay, the flavonol catechin was used as a positive control, showing a SC50 of 8.7 ± 0.1 μg/mL. All G. decorticans fruit PEEs were able to scavenge the superoxide anion, with SC50 values between 14.5–44.2 μg/mL, with the exception of the sample from El Transito II that only scavenged 45.1% the radical at 50 μg/mL.
(§2) The scavenging capacity of the G. decorticans PEEs was evaluated against the free radicals DPPH and superoxide anion. The discoloration of the DPPH radical was carried out according to literature. The scavenging of the superoxide anion was evaluated following a previously described method. Results are presented as the amount of extract that is able to scavenge 50% of the radicals (SC50, μg PEE/mL).

[7] = Ferric-reducing antioxidant power (FRAP) assay; settings: Trolox equivalents
Procedure: as §1

[8] = DPPH discoloration assay
Procedure: as §2

Oc1cc(O)c2c(c1)O[C@H](c1cc(O)c(O)c(O)c1)[C@H](O)C2 [epigallocatechin]
IC50 [1]: 237 µM

O=C(O[C@@H]1Cc2c(O)cc(O)cc2O[C@@H]1c1cc(O)c(O)c(O)c1)c1cc(O)c(O)c(O)c1 [epigallocatechin gallate]
IC50 [1]: 391 µM

CS(=O)(=O)Nc1ccc([N+](=O)[O-])cc1Oc1ccccc1 [Nimesulide]
inhibition at 50 µg/mL [2]: 100%
inhibition at 50 µg/mL [3]: 100%

C[C@H]1[C@H](C)CC[C@]2(C(=O)O)CC[C@]3(C)C(=CC[C@@H]4[C@@]5(C)CC[C@H](O)C(C)(C)[C@@H]5CC[C@]43C)[C@H]12 [Ursolic acid]
inhibition at 50 µg/mL [4]: 26.7 ± 0.7%

O.Oc1cc(O)c2c(c1)O[C@H](c1ccc(O)c(O)c1)[C@@H](O)C2 [Catechin]
CUPRAC [5]: 13.4 ± 0.3 mmol TE/g PEE
O2 Scavenging SC50 [6]: 8.7 ± 0.1 µg/mL
FRAP [7]: 5.4 ± 0.1 mmol TE/g PEE
DPPH SC50 ([8]; Table 1, fruit PEEs): 11.4 ± 1.6 µg/mL
DPPH SC50 ([8]; Table 4, Diego de Almagro PEE and Sephadex LH-20 fractions): 11.4 ± 1.6 µg/mL

O=C(O)c1cc(O)c(O)c(O)c1 [gallic acid]
IC50 [1]: 387 µM
